Patent US20250282735A1, “BICYCLE COMPOUNDS AS TEAD INHIBITOR” (DONG-A ST CO., LTD., priority 2022, published 2025)

Key:
[1] = test system: MSTO-211H cells; assay: Proliferation assay (EdU incorporation), MSTO-211H; assay type: cell-based; conditions: Homo sapiens, 72 h, YAP-driven MSTO-211H (LATS1 mutation), 3 days with inhibitor, 1% serum
Procedure: The anti-proliferative activity of TEAD inhibitors was evaluated in cells with different properties for YAP; “YAP-driven” cells (MSTO-211H, NCI-H226) in which YAP located in the nucleus and “YAP-independent” cells (OCM1, NCI-H28) where YAP located in the cytoplasm. […] TEAD inhibitors were evaluated with cell lines with these YAP profiling and mutational status.
The next day, replace it with cell starvation medium containing 1% serum. After one day of growth in the starvation medium, the cells were incubated for 3 days with TEAD inhibitors in a concentration range of 0.01-10 μM. After 3 days, EdU (Invitrogen) at a concentration of 10 µM was added to the starvation medium and incubated for an additional 24 hours. After removing the starvation medium remaining in each well, wash the wells with PBS. Cells were fixed with 4% paraformaldehyde (Electron microscopy sciences) at room temperature for 20 minutes. After removing the fix solution remaining in each well, wash the wells with PBS and the cells were permeabilized for 40 minutes by adding 0.5% triton X-100 (Sigma Aldrich). After removing the permeabilization solution remaining in each well, the EdU labeling was performed according to the instructions of the manufacturer's instructions (Click-iT™ Cell Reaction Buffer Kit, Invitrogen). After the Click reaction for EdU labeling, nuclei were stained with […] (Thermo Scientific) for total cell count analysis. After plate preparation for detection, Image acquisition was performed using the ImageXpress Micro XLS. The acquired images were analyzed using MetaXpress software (molecular devices). Through this experimental method, it was possible to confirm the inhibitory activity of TEAD inhibitors by detection EdU incorporated into proliferating cells.
IC50 for cell proliferation inhibition activity are shown in the Table 2 below and designated within the following ranges. [+++: ≤0.1 μM, ++: >0.1 μM to ≤1 μM, +: >1 μM to ≤10μ, −: >10 μM]

[2] = test system: TEAD reporter-containing human breast cancer cell line MCF7; assay: TEAD reporter (luciferase) assay; assay type: cell-based; conditions: TEAD reporter MCF7 cells, 24 hours treatment, 1% serum media
Procedure: The TEAD reporter-containing human breast cancer cell line MCF7 (60618, BPS bioscience) was cultured according to the manufacturer's instructions. Cells were plated in 96-well white plates at a density of 30,000 per well and incubated overnight. The following day cells were treated with small molecules in 1% serum media (0.1% v/v DMSO). After 24 hours of the treatment, cell viability was evaluated by using CCK-8 reagent (CK04, Dojindo) and measuring absorbance at 450 nm. Then, the assay for luciferase activity was performed using Dual-Glo® Luciferase Assay System (Promega, E2940) following the manufacturer's instructions. Luminescence intensity was measured and the potency of the compounds was determined by IC50 value generated from non-linear regression analysis of the dose-response curves.
IC50 for luciferase activity are shown in the Table 1 below and designated within the following ranges. [+++: ≤0.1 μM, ++: >0.1 μM to ≤1 μM, +: >1 μM to ≤10 μM, −: >10 μM]

| Compound | IC50 [1] [nM] | IC50 [2] [nM] |
| --- | --- | --- |
| C=CC(=O)N(Cc1ccccc1)c1cnc2c(c1)c(/C=C/c1ccc(Cl)cc1)cn2C [Example 67, (E)-N-Benzyl-N-(3-(4-chlorostyryl)-1-methyl-1H-pyrrolo[2,3-b]pyridin-5-yl)acrylamide] | 1000 to 10000 | – |
| [2H]C([2H])([2H])n1cc(/C=C/c2ccc(Cl)cc2)c2cc(NC(=O)C=C)cnc21 [Example 121, (E)-N-(3-(4-Chlorostyryl)-1-(methyl-d3)-1H-pyrrolo[2,3-b]pyridin-5-yl)acrylamide] | ≤ 100 | 100 to 1000 |
| C=CC(=O)Nc1cnc2c(c1)c(/C=C/c1ccc(C(C)C)cc1)cn2C [Compound 43, (E)-N-(3-(4-Isopropylstyryl)-1-methyl-1H-pyrrolo[2,3-b]pyridin-5-yl)acrylamide] | 100 to 1000 | – |
| C=CC(=O)Nc1cc(F)c2c(c1)c(/C=C/c1ccc(Cl)cc1)cn2C [Compound 37, (E)-N-(3-(4-Chlorostyryl)-7-fluoro-1-methyl-1H-indol-5-yl)acrylamide] | ≤ 100 | 100 to 1000 |
| C=CC(=O)Nc1cnc2c(c1)c(/C=C/c1cccc(Cl)c1)cn2C [Compound 41, (E)-N-(3-(3-Chlorostyryl)-1-methyl-1H-pyrrolo[2,3-b]pyridin-5-yl)acrylamide] | ≤ 100 | – |
| C=CC(=O)Nc1cnc2c(c1)c(/C=C/c1ccc(C(F)(F)F)cc1)cn2C [Compound 46, (E)-N-(1-Methyl-3-(4-(trifluoromethyl)styryl)-1H-pyrrolo[2,3-b]pyridin-5-yl)acrylamide] | 100 to 1000 | – |
| C=CC(=O)Nc1cnc2c(c1)c(-c1cccc(/C=C/C3CCC(F)(F)CC3)c1)cn2C [Example 85, (E)-N-(3-(3-(2-(4,4-Difluorocyclohexyl)vinyl)phenyl)-1-methyl-1H-pyrrolo[2,3-b]pyridin-5-yl)acrylamide] | 100 to 1000 | 100 to 1000 |
| C=CC(=O)Nc1cnc2c(c1)c(/C=C/c1ccc(OC)c(F)c1)cn2C [Compound 42, (E)-N-(3-(3-Fluoro-4-methoxystyryl)-1-methyl-1H-pyrrolo[2,3-b]pyridin-5-yl)acrylamide] | 100 to 1000 | – |
| C=CC(=O)Nc1ccc2c(c1)c(/C=C/c1ccc(Cl)cc1)c(C)n2C [Compound 14, (E)-N-(3-(4-Chlorostyryl)-1,2-dimethyl-1H-indol-5-yl)acrylamide] | 100 to 1000 | – |
| C=CC(=O)Nc1cnc2c(c1)c(-c1ccc(C(F)(F)F)cc1)cn2C(F)F [Example 129, N-(1-(Difluoromethyl)-3-(4-(trifluoromethyl)phenyl)-1H-pyrrolo[2,3-b]pyridin-5-yl)acrylamide] | 100 to 1000 | – |
| C=CC(=O)Nc1cnc2c(c1)c(/C=C/c1ccc(F)c(F)c1)cn2C [Compound 44, (E)-N-(3-(3,4-Difluorostyryl)-1-methyl-1H-pyrrolo[2,3-b]pyridin-5-yl)acrylamide] | ≤ 100 | – |
| C=CC(=O)Nc1cnc2c(c1)c(-c1ccc(C(F)(F)F)cc1)cn2C(C)C [Example 96, N-(1-isopropyl-3-(4-(trifluoromethyl)phenyl)-1H-pyrrolo[2,3-b]pyridin-5-yl)acrylamide] | 100 to 1000 | – |
| C=CC(=O)N(C)c1cnc2c(c1)c(/C=C/C1CCC(F)(F)CC1)cn2C [Example 66, (E)-N-(3-(2-(4,4-Difluorocyclohexyl)vinyl)-1-methyl-1H-pyrrolo[2,3-b]pyridin-5-yl)-N-methylacrylamide] | 100 to 1000 | – |
| C=CC(=O)Nc1cnc2c(c1)c(-c1ccc(C(F)(F)F)cc1)cn2CC [Example 95, N-(1-Ethyl-3-(4-(trifluoromethyl)phenyl)-1H-pyrrolo[2,3-b]pyridin-5-yl)acrylamide] | 100 to 1000 | – |
| C=CC(=O)Nc1cnc2c(c1)c(/C=C/C1CCCCC1)cn2C [Compound 49, (E)-N-(3-(2-Cyclohexylvinyl)-1-methyl-1H-pyrrolo[2,3-b]pyridin-5-yl)acrylamide] | ≤ 100 | – |
| C=CC(=O)Nc1cnc2c(c1)c(-c1ccc(F)cc1)cn2C [Example 103, N-(3-(4-Fluorophenyl)-1-methyl-1H-pyrrolo[2,3-b]pyridin-5-yl)acrylamide] | 100 to 1000 | – |
| C=CC(=O)Nc1cnc2c(c1)c(/C=C/c1cccc(F)c1)cn2C [Compound 40, (E)-N-(3-(3-Fluorostyryl)-1-methyl-1H-pyrrolo[2,3-b]pyridin-5-yl)acrylamide] | 100 to 1000 | – |

| Compound | IC50 [1] [nM] | IC50 [2] [nM] |
| --- | --- | --- |
| C=CC(=O)Nc1cnc2c(c1)c(-c1ccc(CCC)cc1)cn2C [Example 100, N-(1-Methyl-3-(4-propylphenyl)-1H-pyrrolo[2,3-b]pyridin-5-yl)acrylamide] | ≤ 100 | – |
| C=CC(=O)Nc1cnc2c(c1)c(-c1cccc(OCc3cccc(Cl)c3)c1)cn2C [Compound 52, N-(3-(3-((3-Chlorobenzyl)oxy)phenyl)-1-methyl-1H-pyrrolo[2,3-b]pyridin-5-yl)acrylamide] | 100 to 1000 | – |
| C=CC(=O)Nc1cnc2c(c1)c(-c1ccc(C)cc1)cn2C [Example 104, N-(1-Methyl-3-(p-tolyl)-1H-pyrrolo[2,3-b]pyridin-5-yl)acrylamide] | 100 to 1000 | – |
| C=CC(=O)Nc1cnc2c(c1)c(-c1cccc(N3CCCCC3)c1)cn2C [Example 88, N-(1-Methyl-3-(3-(piperidin-1-yl)phenyl)-1H-pyrrolo[2,3-b]pyridin-5-yl)acrylamide] | 100 to 1000 | – |
| C=CC(=O)Nc1cnc2c(c1)c(-c1ccc(C(C)(C)C)cc1)cn2C [Example 109, N-(3-(4-(tert-Butyl)phenyl)-1-methyl-1H-pyrrolo[2,3-b]pyridin-5-yl)acrylamide] | – | 1000 to 10000 |
| C=CC(=O)Nc1cnc2ccn(CC3CCCCC3)c2c1 [Example 77, N-(1-(Cyclohexylmethyl)-1H-pyrrolo[3,2-b]pyridin-6-yl)acrylamide] | 100 to 1000 | – |
| C=CC(=O)Nc1ccc2c(c1)c(C1CCCCC1)cn2C [Example 123, N-(3-Cyclohexyl-1-methyl-1H-indol-5-yl)acrylamide] | – | ≤ 100 |
| C=CC(=O)Nc1ccc2c(/C=C/C3CCC(F)(F)CC3)cn(C)c2c1 [Compound 13, (E)-N-(3-(2-(4,4-Difluorocyclohexyl)vinyl)-1-methyl-1H-indol-6-yl)acrylamide] | 1000 to 10000 | – |
| C=CC(=O)Nc1cnc2c(c1)c(-c1ccc(CCCC)cc1)cn2C [Example 110, N-(3-(4-Butylphenyl)-1-methyl-1H-pyrrolo[2,3-b]pyridin-5-yl)acrylamide] | – | 100 to 1000 |
| C=CC(=O)Nc1cnc2c(c1)c(/C=C/C1CC1C(=O)OCC)cn2C (stereo not shown) [Example 62, Ethyl (E)-2-(2-(5-acrylamido-1-methyl-1H-pyrrolo[2,3-b]pyridin-3-yl)vinyl)cyclopropane-1-carboxylate] | – | > 10000 |
| C=CC(=O)Nc1cnc2c(c1)c(C=C1CCCCC1)cn2C [Example 137, N-(3-(Cyclohexylidenemethyl)-1-methyl-1H-pyrrolo[2,3-b]pyridin-5-yl)acrylamide] | – | ≤ 100 |
| C=CC(=O)Nc1cnc2ccn(Cc3ccc(C(F)(F)F)cc3)c2c1 [Example 76, N-(1-(4-(Trifluoromethyl)benzyl)-1H-pyrrolo[3,2-b]pyridin-6-yl)acrylamide] | – | ≤ 100 |
| C=CC(=O)Nc1cnc2c(c1)c(C1=CCCCC1)cn2C [Example 101, N-(3-(Cyclohex-1-en-1-yl)-1-methyl-1H-pyrrolo[2,3-b]pyridin-5-yl)acrylamide] | – | 1000 to 10000 |
| C=CC(=O)N(Cc1nn[nH]n1)c1cnc2c(c1)c(/C=C/c1ccc(Cl)cc1)cn2C [Example 69, (E)-N-((2H-Tetrazol-5-yl)methyl)-N-(3-(4-chlorostyryl)-1-methyl-1H-pyrrolo[2,3-b]pyridin-5-yl)acrylamide] | – | 1000 to 10000 |
| C=CC(=O)Nc1cnc2c(c1)c(-c1cc(C)c(O)c(C)c1)cn2C [Example 113, N-(3-(4-Hydroxy-3,5-dimethylphenyl)-1-methyl-1H-pyrrolo[2,3-b]pyridin-5-yl)acrylamide] | – | > 10000 |
| C=CC(=O)N(Cc1ccncc1)c1cnc2c(c1)c(/C=C/c1ccc(Cl)cc1)cn2C [Example 68, (E)-N-(3-(4-Chlorostyryl)-1-methyl-1H-pyrrolo[2,3-b]pyridin-5-yl)-N-(pyridin-4-ylmethyl)acrylamide] | 1000 to 10000 | – |
| C=CC(=O)Nc1cnc2c(c1)c(-c1ccc(F)c(Cl)c1)cn2C(F)F [Example 135, N-(3-(3-Chloro-4-fluorophenyl)-1-(difluoromethyl)-1H-pyrrolo[2,3-b]pyridin-5-yl)acrylamide] | – | 1000 to 10000 |
